Data published in PubChem BioAssay (NCI).
Values joined by “and” are separate entries in the source; they are usually repeats but may differ in a detail not shown here. Identical values can stand only once.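 Growth conditions: 96-well plates. Treatment: test compound, 48 hours, 5 concentrations. Analysis: linear interpolation between bracketing concentrations; unreached endpoints set to highest concentration. Abbreviation: GI50, concentration required for 50% inhibition of growth. TGI: total growth inhibition.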

Experiments:
Test in all cases: NCI anticancer screen, dose series, 48 h
COLO 205 colon = test system: COLO 205 colon
HCC-2998 colon = test system: HCC-2998 colon
HOP-92 NSCLC = test system: HOP-92 NSCLC
SW-620 colon = test system: SW-620 colon
DU-145 prostate = test system: DU-145 prostate
UACC-257 melanoma = test system: UACC-257 melanoma
SK-MEL-2 melanoma = test system: SK-MEL-2 melanoma
NCI-H460 lung = test system: NCI-H460 lung
HL-60(TB) leukemia = test system: HL-60(TB) leukemia
K-562 leukemia = test system: K-562 leukemia

Structure (SMILES) | GI50 (COLO 205 colon) [µM] | TGI (COLO 205 colon) | GI50 (HCC-2998 colon) [µM] | TGI (HCC-2998 colon) | GI50 (HOP-92 NSCLC) [µM] | TGI (HOP-92 NSCLC) | GI50 (SW-620 colon) [µM] | TGI (SW-620 colon) | GI50 (DU-145 prostate) [µM] | TGI (DU-145 prostate) [µM] | GI50 (UACC-257 melanoma) [µM] | TGI (UACC-257 melanoma) | GI50 (SK-MEL-2 melanoma) [µM] | TGI (SK-MEL-2 melanoma) | GI50 (NCI-H460 lung) [µM] | TGI (NCI-H460 lung) | GI50 (HL-60(TB) leukemia) [µM] | TGI (HL-60(TB) leukemia) | GI50 (K-562 leukemia) [µM] | TGI (K-562 leukemia)
CC(=O)N1CC(F)(F)c2c(Sc3ncc(N4CCC5(CC4)COC[C@H]5N)nc3N)cccc21 | 17.8 | 36.7 µM | 28.3 | 94.1 µM | 0.259 | 3.64 µM | 16.8 | 54.4 µM | 25.7 | > 100 | 22.8 | 62 µM | 24.7 | > 100 µM | 31.8 | > 100 µM | 18.3 | 36.4 µM | 2.11 | 20.7 µM
COc1cc(C2C(C#N)=C(N)OC3=C2C(=O)c2ccccc2C3=O)cc(OC)c1OC (stereo not given) | 3.55 | 19.7 µM | 2.52 | 18.7 µM | 0.861 | 24.9 µM | 0.413 | 25.9 µM | 0.474 | 15.9 | 1.18 | 13.3 µM | 0.998 | 19.2 µM | 0.532 | 14.5 µM | 2.28 | 6.77 µM | 0.415 | > 100 µM
COc1ccc(/C=C\c2cc(OC)c(OC)c(OC)c2)c(NS(=O)(=O)c2ccc(C)cc2)c1O | 0.723 | 3.89 µM | 0.0904 | 10.9 µM | 0.102 | 27.5 µM | 0.0447 | > 100 µM | 0.0399 |  | 17.8 | > 100 µM | 1.45 | > 100 µM | 0.0351 | > 37.9 µM | 0.0338 | 2.06 µM | 0.0409 | > 100 µM
C=C(C)[C@H]1CC/C(C)=C/CCC(C)C(=O)CC/C(CO)=C\[C@@H]1O (stereo not given in full) | > 100 | > 100 µM | > 100 | > 100 µM | 61.5 | > 100 µM | > 100 | > 100 µM | 60.8 | > 100 | > 100 | > 100 µM | > 100 | > 100 µM | 58.8 | > 100 µM | 45.4 | > 100 µM | 65.6 | > 100 µM
CC[C@H](C)[C@H](NC(=O)C12C3C4C1C1C2C3C41NC(C)=O)C(=O)N(C)[C@H](C[C@@H](OC(C)=O)c1nc(C(=O)N[C@@H](Cc2ccccc2)C[C@H](C)C(=O)OC)cs1)C(C)C (stereo not given in full) | 0.346 | 1.71 µM | 0.279 | > 14.3 µM | > 14.3 | > 14.3 µM | 0.206 | > 14.3 µM | 0.469 | > 9.88 | 0.563 | > 14.3 µM | 0.162 | > 14.3 µM | 0.402 | > 14.3 µM | 0.0679 | 0.383 µM | 0.118 | > 14.3 µM
O=[N+]([O-])c1ccc2c(N=Nc3c(O)ccc4ccccc34)c(O)cc(S(=O)(=O)O)c2c1 | 53.4 | 50 µM and > 100 µM |  | > 100 µM |  | 50 µM | 57.7 | 50 µM and > 100 µM |  | > 100 | 32 | 50 µM and > 100 µM | 40.9 | 50 µM and > 100 µM |  | > 100 µM | 7.58 | 14.9 µM and 58.6 µM | 25 | 50 µM and > 100 µM
CC(=O)Oc1cccc2c1C(=O)c1c(OC(C)=O)cc(C)cc1C2=O |  | > 100 µM |  | > 100 µM |  | > 100 µM |  | > 100 µM |  | > 100 |  | > 100 µM |  | > 100 µM |  | > 100 µM |  | > 100 µM |  | > 100 µM
O=C1c2cc(CCl)sc2C(=O)c2ccsc21 |  | 2.68 µM |  | 3.04 µM |  | 1.47 µM |  | 0.387 µM |  | 0.332 |  | 0.327 µM |  | 0.42 µM |  | 2.63 µM |  | 0.497 µM |  | 0.478 µM
O=C1/C(=C/c2cccs2)CCC/C1=C\c1cccs1 | > 100 | > 100 µM | > 100 | > 100 µM | 10.6 | 57.8 µM | > 100 | > 100 µM | 46.6 | > 100 | 79.1 | > 100 µM | 47.8 | > 100 µM | > 76.4 | > 100 µM | > 100 | > 100 µM | > 100 | > 100 µM
CN(C)c1ccc(/C=C/c2ccnc3ccccc23)cc1 | 3.37 | > 100 µM and 16 µM | 5.95 | > 100 µM and 33 µM | 0.651 | > 100 µM and 10.8 µM | 2.96 | > 100 µM | 5.86 | > 100 | 22.2 | > 100 µM and 71.2 µM | 26.2 | > 100 µM | 3.07 | > 100 µM and 16.8 µM | 2.86 | > 100 µM and 16.8 µM | 1.66 | > 100 µM
